Results reported in article PMC9404989, “Design and Evaluation of Short Bovine Lactoferrin-Derived Antimicrobial Peptides against Multidrug-Resistant Enterococcus faecium” (Antibiotics, 2022).
Values joined by “and” are separate entries in the source; they are usually repeats but may differ in a detail not shown here. Equal entries are not always repeated. No end group written: not given here.

What was measured:
Assay type in all cases: cell-based, Enterococcus faecium
E. faecium strain C68 [1] = test: microbe, parasite or virus in culture; conditions: strain C68, 18 h
Description: To determine the MICs of peptides, we used the broth microdilution method described by the Clinical and Laboratory Standards Institute. We made serial dilutions of 10× concentration (10 µL) for each peptide in duplicates in 96-well plates (Cat No. 3595, Corning, New York, NY, USA). We added 90 µL of logarithmic-phase bacteria at 5 × 10^5 CFU/mL (in BHI media) to the peptides and then incubated the plates at 37 °C for 18 h. We measured the OD600 absorbance readings using the Spectra Max i3x spectrophotometer (Molecular Devices, San Jose, CA, USA) and determined the MIC as the peptide concentration that inhibits the growth of bacteria.
To investigate the activity of peptides in various salt concentrations, we included physiologically relevant salts in the BHI medium.

[2] = system: E. faecium C68 biofilm formation; test: Prevention of E. faecium biofilm formation (XTT, crystal violet); conditions: for biomass depleted / biofilm formation inhibited: at 32 µg/mL, biofilm formation stage
Description: We evaluated the ability of the lactoferrin-derived peptides to inhibit biofilm formation following an established protocol with modifications. In short, we prepared exponential cultures of E. faecium C68 (adjusted to OD600 = 0.01) in BHI media (supplemented with 0.2% glucose) from overnight grown cultures. We added 90 µL of the bacterial culture to 10 µL of serially diluted 10× peptide solution in flat-bottomed 96-well polystyrene microtiter plates (Cat No. 3595, Corning, NY, USA) and then incubated the plates at 37 °C for 24 h. We considered media containing bacteria and water as the positive control, while media with water served as the negative control. After incubation, we carefully pipetted out the media and washed the wells with PBS (Gibco, Waltham, MA, USA) to remove loosely attached planktonic cells. We quantified the biomass by staining the biofilms with crystal violet following an established protocol and quantitated the concentration of peptide that inhibits 50% of biofilm formation (MBIC50). Furthermore, we measured the live cell count of the biofilms using XTT [2,3-bis(2-methyloxy-4-nitro-5-sulfophenyl)-2H-tertazolium-5-carboxanilide] dye (ATCC, Manassas, VA, USA). We calculated the percentage of biofilm growth by assuming that there was 100% biofilm growth in wells with bacteria without peptide treatment.

[3] = system: E. faecium strain C68 established biofilms; conditions: for established biomass reduced: at 32 µg/mL, 24 h established biofilms
Description: We prepared exponential cultures of E. faecium strain C68 (adjusted to 1 × 10^8 CFU/mL) in BHI media (supplemented with 0.2% glucose) from overnight grown cultures. We added 100 µL of the bacterial culture to wells of flat-bottomed 96-well polystyrene microtiter plates (Cat No. 3595, Corning, NY, USA). We then incubated the plates at 37 °C for 24 h in static conditions to allow biofilm formation. After incubation, we carefully pipetted out the media and washed the wells with PBS (Gibco, Waltham, MA, USA) to remove loosely attached planktonic cells. We treated the established biofilms in each well with 10 µL of serially diluted 10× peptide solution, followed by the addition of 90 μL of BHI media (supplemented with 0.2% glucose). The plates were incubated for another 24 h at 37 °C before processing for biomass and live-cell contents. We quantitated the concentration of peptide that disrupts 50% of established biofilms (MBEC50).

[4] = system: biofilm genes ace, esp, ebpA, ebpC of E. faecium strain C68; test: qPCR of genes associated with biofilm formation; conditions: 0.5× MIC, 30 min, real-time PCR
Description: For the qPCR of genes associated with biofilm formation, we followed an established protocol for RNA isolation and quantitative PCR reactions with minor modifications. We prepared exponential cultures of E. faecium strain C68 adjusted to an OD600 = 0.4 in BHI media from overnight grown cultures. After treating 10 mL of bacterial culture with 0.5× MICs of 5L and 6L for 30 min, we extracted RNA using the RNeasy mini kit (Qiagen, Hilden, Germany) according to the manufacturer’s instructions. Using the primers listed in Supplementary Table S2, we performed cDNA synthesis and quantitative reverse transcription (RT)-PCR as recommended by the manufacturer (Bio-Rad, Hercules, CA, USA). Our qPCR cycling conditions were: 95 °C for 30 s; 40 cycles at 95 °C for 5 s; 55 °C for 30 s; and finished with a melt curve analysis from 65 to 95 °C.

E. faecium strain C68 [5] = test: Growth inhibition assay; conditions: 32 µg/mL, OD600 over 4 h
Description: We cultivated overnight cultures of E. faecium strain C68 in BHI media. We inoculated the bacteria in a fresh BHI medium the next day to achieve the exponential phase and adjusted the bacterial density to 1 × 10^8 CFU/mL. We added 90 µL of this bacterial culture to each well of the microtiter plates (Cat No. 3595, Corning, New York, NY, USA) containing 10 µL of serially diluted 10× peptide solution. We monitored the bacterial growth on a SpectraMax i3x spectrophotometer (Molecular Devices, San Jose, CA, USA) by taking OD600 readings every 10 min for 4 h.

[6] = strain C68 established biofilms, 24 h

## RRWLWLRRWLWR-NH2 [Peptide 5L]
E. faecium strain C68 [1]
  MIC + CaCl2 (2.5 mM): 16 µg/mL
  MIC + MgSO4 (1 mM): 8 µg/mL
  MIC + NaCl (150 mM): 4 µg/mL
  MIC + ZnSO4 (8 µM): 4 µg/mL
[2]
  biomass depleted / biofilm formation inhibited: 90%
[3]
  established biomass reduced: 75%
[3]; [6]
  MBEC50 (established biomass): 16 µg/mL
  live bacteria killed within matured biofilm matrix: 50%
[4]
  downregulation of ace expression: 8 folds
  downregulation of ebpA expression: 2 fold
  downregulation of ebpC expression: 2 fold
  downregulation of esp expression: 4 fold

## RRWLWRLRWLWR-NH2 [Peptide 6L]
E. faecium strain C68 [1]
  MIC + CaCl2 (2.5 mM): 8 µg/mL
  MIC + MgSO4 (1 mM): 8 µg/mL
  MIC + NaCl (150 mM): 4 µg/mL
  MIC + ZnSO4 (8 µM): 4 µg/mL
[2]; XTT, 24 h, BHI + 0.2% glucose
  concentration killing 50% of live bacterial cells during biofilm formation stage: 1.2 µg/mL
[2]
  biomass depleted / biofilm formation inhibited: 90% and 92%
[3]
  established biomass reduced: 75%
[3]; [6]
  MBEC50 (established biomass): 16 µg/mL
[4]
  downregulation of ace expression: 4 folds
  downregulation of ebpC expression: 2 fold
E. faecium strain C68 [5]
  growth inhibition: inhibited the maximum growth
